Molecules are shown by their SMILES. Active and inactive are the calls of the source.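 Rule for the calls: active = compounds whose fitted half-maximal concentration in the cell-protection dose series is at or below a set limit; inactive = the rest.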

The experiment deals with H9c2 cardiomyocytes, 2-deoxyglucose stress, ATP luminescence, 2 h. The experiment in a line: protection of cardiomyocytes from 2-deoxyglucose injury, dose response, cell-based, 2-deoxyglucose stress, uHTS hits (AID 588780).
In general, IC50 refers to the concentration needed to halve the response being measured. For the compound `CCN1C(=O)[C@H]2[C@H]3CN=C(SCc4ccc(C#N)cc4)N3[C@@](Cc3ccccc3)(C(=O)OC)[C@H]2C1=O`, the IC50 was > 79 µM (inactive). In the case of `CN(CC(=O)Nc1ccc(F)cc1)C(=O)CCc1nc2ccccc2c(=O)[nH]1`, the IC50 is > 79 µM (inactive). Regarding `COc1ccc(N2CC(C(=O)NCc3n[nH]c(=O)c4ccccc34)CC2=O)cc1` (stereo not drawn), the IC50 was > 79 µM (inactive).

Take `COc1ccc(-n2c(C)c(C(C)=O)c3cc(OC(C)=O)ccc32)cc1`: the IC50 is 25.2 µM. As for `CCOC(=O)N1CCc2c(sc(NC(=O)CN3CCOCC3)c2C(=O)Nc2ccccc2)C1`, the IC50 is 54.6 µM (inactive). For the compound `O=c1[nH]nc(-c2ccc(NCCCO)c([N+](=O)[O-])c2)c2ccccc12`, the IC50 is > 79 µM (inactive).

On to `Oc1ccc(Br)cc1C=Nc1ccc2c3c(cccc13)CC2`, for which the IC50 is 59.1 µM (inactive). As to `O=C(Nc1ccc2nc(N3CCOCC3)sc2c1)c1cc2ccccc2o1`, the IC50 was > 79 µM (inactive). On to `COc1ccccc1OCC(=O)Nc1sc2c(c1C(=O)NCC1CCCO1)CCC2` (stereo not drawn), for which the IC50 is > 79 µM (inactive).

Regarding `COc1cccc(-c2cnc3c(NC=O)cc(-c4cc(C)c(O)c(C)c4)cn23)c1`, the IC50 is 10.2 µM. For the compound `O=C(COC(=O)Cc1n[nH]c(=O)c2ccccc12)NNC(=O)c1ccc(Br)cc1`, the IC50 is > 79 µM (inactive). In the case of `CC(OC(=O)Cn1[nH]c(=O)c2ccccc2c1=O)C(=O)Nc1ccc(F)cc1Cl` (stereo not drawn), the IC50 is > 79 µM (inactive). As to `COc1ccccc1CN(C)C(=O)c1cc(-c2cc(OC)c(OC)c(OC)c2)nc2ccccc12`, the IC50 is 6.57 µM.

On to `Cc1cc(NC(=O)C2CCCCC2)nc2c1c(=O)oc1ccccc12`, for which the IC50 was 15.3 µM. On to `COc1ccccc1NC(=O)c1cc(-c2ccc(OC)c(OC)c2)nc2ccccc12`, for which the IC50 is > 79 µM (inactive). `O=c1c2ccccc2nc(CSc2ncnc3nc[nH]c23)n1-c1ccc(Cl)c(Cl)c1`: the IC50 is > 79 µM (inactive). As for `O=C(NCc1ccco1)C(c1ccccc1)N(C(=O)Cc1cccs1)c1ccccc1F` (stereo not drawn), the IC50 is > 79 µM (inactive). Next, `CC(=O)Nc1cccc(NC(=O)c2cc(-c3cccnc3)nc3ccc(Cl)cc23)c1`: > 79 µM (inactive). With `CCOC(=O)C1CCN(C(c2cc3c(C)ccc(C)c3[nH]c2=O)c2nnnn2C2CCCCC2)CC1` (stereo not drawn), the IC50 was > 79 µM (inactive). Next, `O=C(NCC(=O)N(Cc1cccs1)C(C(=O)NC1CCCCC1)c1ccco1)c1ccco1` (stereo not drawn): 15.5 µM; `COc1ccc(-c2ccc3c(c2)S(=O)(=O)c2cccc(C(=O)N4CCN(c5ccccn5)CC4)c2C3=O)cc1OC`: 13.7 µM; `COC(=O)c1ccccc1NC(=O)c1ccc2nccnc2c1`: > 79 µM (inactive). For the compound `O=C(NC1CCCCC1)C(c1ccc2ncccc2c1)N(Cc1ccccc1)C(=O)c1ccc2c(c1)OCCO2` (stereo not drawn), the IC50 is 32 µM (inactive). On to `COc1cccc2cc(-c3cc(=O)oc4ccc(OCC(C)=O)cc34)oc12`, for which the IC50 was > 79 µM (inactive). Regarding `COc1ccccc1C(=O)COC(=O)Cn1[nH]c(=O)c2ccccc2c1=O`, the IC50 is > 79 µM (inactive).

For `O=c1c(O)c(-c2ccccc2)oc2cc(O)ccc12`, the IC50 was > 79 µM (inactive).

Take `COC(=O)c1c(C)[nH]c(C(=O)COc2ccc3ccc(=O)oc3c2)c1C`: the IC50 is > 79 µM (inactive). Next, `CCn1c(=O)c(C(=O)NC(C)c2ccccc2)c(O)c2ccccc21` (stereo not drawn): > 79 µM (inactive); `C[C@H]1Cn2cnc(C(=O)N[C@@H](Cc3c[nH]c4ccccc34)C(=O)OC(C)(C)C)c2C(=O)N1`: 21 µM; `CCCCN(Cc1nc2ccccc2c(=O)[nH]1)C(=O)CN1C(=O)NC2(CCCCC2)C1=O`: > 79 µM (inactive). In the case of `N#Cc1c(-c2ccco2)cc(-c2ccccn2)nc1N`, the concentration for half-maximal inhibition (IC50) is 22.7 µM.

As for `Fc1ccc(CSc2ccc3nnc(-c4cccnc4)n3n2)cc1`, the IC50 is 26 µM. `CC(OC(=O)CCc1nc2ccccc2c(=O)[nH]1)C(=O)Nc1ccc2c(c1)OCO2` (stereo not drawn): the IC50 is > 79 µM (inactive).

`CCOC(=O)N1CCN(S(=O)(=O)c2ccc(C(=O)NNc3nc4c(C)cccc4s3)cc2)CC1`: the IC50 was > 79 µM (inactive). Regarding `COc1cc(NC(=O)c2ccc(-c3cn[nH]c3)c3ccoc23)cc(OC)c1OC`, the IC50 is 10.4 µM. As for `O=C(COc1ccc(F)cc1)Nc1nc(-c2ccccn2)cs1`, the figure is > 79 µM (inactive); as for `COc1cc(C)cc2oc(=O)c(CC(=O)N3CCN(C(=O)C4COc5ccccc5O4)CC3)c(C)c12` (stereo not drawn), 34.9 µM (inactive).

On to `Cc1ccc2cc(C#N)c(N3CCN(C(=O)c4cccs4)CC3)nc2c1`, for which the IC50 is > 79 µM (inactive). Regarding `O=C(CSc1nc2ccccc2c(=O)[nH]1)c1ccc(O)cc1O`, the IC50 is 33.1 µM (inactive). In the case of `O=C(CCc1nc2ccccc2c(=O)[nH]1)Nc1ccc(F)c([N+](=O)[O-])c1`, the IC50 was 6.81 µM. `O=C(CSc1nc2ccccc2o1)NCc1n[nH]c(=O)c2ccccc12`: the IC50 was 13.9 µM.

On to `CCOc1ccc2[nH]c(=O)c(CN(Cc3nnnn3Cc3ccco3)C3CCCCC3)cc2c1`, for which the IC50 was > 79 µM (inactive). As to `COc1ccccc1NS(=O)(=O)c1cc(NC(=O)CCc2nc3ccccc3c(=O)[nH]2)ccc1C`, the IC50 was 11.4 µM. `CCc1c(C)nc(Nc2nc(C)c3ccc(OC)cc3n2)[nH]c1=O`: the IC50 was > 79 µM (inactive). As for `O=C(Nc1nnc(-c2ccco2)o1)c1ccc2ccccc2c1`, the figure is > 79 µM (inactive). Turning to `CCC(C)N1C(=O)S/C(=C/c2ccc3c(c2)n(C)c(=O)n3C)C1=O` (stereo not drawn), the IC50 was > 79 µM (inactive). For the compound `CC(C)[C@H](NC(=O)c1ccccc1Cl)C(=O)Nc1nc(-c2ccccn2)cs1`, the IC50 was > 79 µM (inactive). As for `CCn1c(/C=N/NC(=O)c2ccc(OC)cc2)nc2ccccc21`, the figure is > 79 µM (inactive); as for `COc1cc(CCNc2ccc3nnc(-c4ccccc4)n3n2)cc(OC)c1OC`, 23.9 µM. Consider `O=c1c(O)c(-c2cccs2)oc2ccc(Cl)cc12`, for which the IC50 was 20.6 µM. `CC(=O)CCc1ccc(Oc2nc(-c3cccnc3)nc3ccccc23)cc1`: the IC50 is > 79 µM (inactive). Take `Cc1sc2nc(SCC(=O)N3CCOCC3)[nH]c(=O)c2c1C`: the IC50 was > 79 µM (inactive). For `CCOc1ccc(/C=C/C(=O)c2cc(Br)ccc(=O)c2O)cc1`, the IC50 is > 79 µM (inactive). As to `CCOC(=O)Cc1csc(NC(=O)NC2(C(F)(F)F)Oc3ccccc3O2)n1`, the IC50 is 35.3 µM (inactive).

On to `COCCOC(=O)N/C=C\c1nc2ccccc2c(=O)[nH]1`, for which the IC50 was 26.7 µM. As for `O=C(Nc1nc(-c2ccccn2)cs1)c1cc(S(=O)(=O)N2CCOCC2)ccc1F`, the figure is > 79 µM (inactive); as for `COc1ccc(-c2cc(=O)oc3c(C)c(O)c(CN(C)C)cc23)cc1`, > 79 µM (inactive); as for `O=C(NCC(=O)N(Cc1ccccc1)C(C(=O)NC1CCCCC1)c1ccco1)c1ccco1` (stereo not drawn), 16.2 µM. `Cc1ccc(N2CC(C(=O)NCc3n[nH]c(=O)c4ccccc34)CC2=O)cc1C` (stereo not drawn): the IC50 was > 79 µM (inactive). Consider `Cc1ccc(S(=O)(=O)N2CCN(C(=O)CCc3nc4ccccc4c(=O)[nH]3)CC2)c(C)c1`, for which the IC50 was > 79 µM (inactive).

`CC(=O)c1ccccc1OCC(O)CN1CCN(CCN2C(=O)c3cccc4cccc(c34)C2=O)CC1` (stereo not drawn): the IC50 was > 79 µM (inactive). In the case of `O=C(Nc1ccccc1)c1cccc2c(-c3cccnc3)coc12`, the IC50 is > 79 µM (inactive). For the compound `O=C(Nc1cccc(Cl)c1)c1nc[nH]c1C(=O)NCCCCNC(=O)c1[nH]cnc1C(=O)Nc1cccc(Cl)c1`, the IC50 was > 79 µM (inactive). As for `CC(OC(=O)Cc1n[nH]c(=O)c2ccccc12)C(=O)Nc1ccc(F)cc1Cl` (stereo not drawn), the figure is > 79 µM (inactive); as for `O=c1[nH]c(CN2CCCC2)nc2sc3c(c12)CCC3`, > 79 µM (inactive). As for `Cc1ccccc1C1c2[nH]c3ccccc3c2C[C@H]2C(=O)N(c3ccccc3C(=O)NCCCN3CCOCC3)C(=O)N12` (stereo partly drawn), the figure is 27.1 µM. As for `Cc1c(C2Nc3ccccc3C(=O)N2O)cnn1C` (stereo not drawn), the figure is 14.6 µM; as for `CCOC(=O)c1cc2c(=O)n3ccccc3nc2n(Cc2ccco2)c1=NC(=O)c1cccnc1`, 22.3 µM. Take `O=C(COc1ccc(F)cc1Cl)Nc1nc(-c2ccccn2)cs1`: the IC50 was > 79 µM (inactive). As for `COC(=O)c1cc(OC)c(OC)cc1NC(=O)c1ccc(OC)c(OC)c1`, the IC50 is > 79 µM (inactive). As for `Cc1ccc2c(c1)CCCN2C(=O)CCc1nc2ccccc2c(=O)[nH]1`, the IC50 is 9.06 µM. Take `CSCC[C@H](NC(=O)OC(C)(C)C)C(=O)N/N=C/c1cccc2cccnc12`: the IC50 is 30.9 µM (inactive). Next, `COc1ccc(-c2nn(-c3ccccc3)cc2C(=O)Nc2nccs2)cc1`: 12.1 µM; `COc1ccc(-c2csc(NC(=O)c3ccc(OCC(=O)N4CCOCC4)c(OC)c3)n2)cc1OC`: > 79 µM (inactive); `COc1cc2c(C(=O)NCc3ccccn3)cn(CC(C)C)c(=O)c2cc1OC`: 54.6 µM (inactive). As for `COc1ccc(/C=N/NC(=O)c2ccc(COc3cccc4cccnc34)cc2)cc1OC`, the IC50 was > 79 µM (inactive).

For `Cc1cccc(-n2[nH]c(C)c(C=Nc3ccc4[nH]c(=O)[nH]c4c3)c2=O)c1`, the IC50 is > 79 µM (inactive).

As to `Cc1ccc(-c2n[nH]c(=O)c3ccccc23)cc1S(=O)(=O)NCC1CCCO1` (stereo not drawn), the IC50 is > 79 µM (inactive). As to `CCOC(=O)C1=C(COC(=O)c2cc(OC)c(OC)c(OC)c2)NC(=O)NC1C` (stereo not drawn), the IC50 was 50 µM (inactive).

Regarding `C[C@H](NC(=O)c1nc[nH]c1C(=O)NCC(=O)OCc1ccccc1)c1ccccc1`, the IC50 was 13.6 µM. On to `COC(=O)Cn1c(=NC(=O)c2cc(-c3cccs3)nc3ccccc23)sc2cc(S(N)(=O)=O)ccc21`, for which the 50% inhibitory concentration (IC50) is 6.88 µM.

Regarding `CC(C)OCCCNC(=O)CCC(=O)NNc1nc2ccccc2c2nc(-c3ccccc3)nn12`, the IC50 was > 79 µM (inactive). Consider `NC(=O)c1nsc(C(=O)N(c2ccccc2)C(C(=O)NC2CCCC2)c2ccc3ncccc3c2)c1N` (stereo not drawn), for which the IC50 is > 79 µM (inactive).
